Data published in US20240166652A1, “MODULATORS OF THE INTEGRATED STRESS PATHWAY” (Calico Life Sciences LLC, priority 2017, published 2024).

Test system: ATF4 luciferase reporter in HEK293T cells
Experiment: ATF4-Luc assay (ATF4 luciferase reporter, tunicamycin-treated HEK293T cells)
Format: cell-based, human
Details: Homo sapiens, HEK-293T; HEK293T cells carrying the ATF4 luciferase reporter, 1 μg/mL tunicamycin, 7 hours

Row | SMILES | EC50
1 | CC(=O)O[C@H]1CC2(NC(=O)COc3ccc(Cl)c(F)c3)CCC1(NC(=O)COc1ccc(Cl)c(F)c1)CC2 [Compound 445, (2S)-1,4-bis[2-(4-chloro-3-fluorophenoxy)acetamido]bicyclo[2.2.2]octan-2-yl acetate] | < 10 nM
2 | O=C(COc1ccc(Cl)c(F)c1)NC12CC(NC(=O)Cc3ccccc3)(C1)C2 [Compound 446, 2-(4-chloro-3-fluorophenoxy)-N-[3-(2-phenylacetamido)bicyclo[1.1.1]pentan-1-yl]acetamide] | > 2000 nM
3 | O=C(COc1ccc(Cl)c(Cl)c1)NC12CC(NC(=O)Cc3ccccn3)(C1)C2 [Compound 447, 2-(3,4-dichlorophenoxy)-N-{3-[2-(pyridin-2-yl)acetamido]bicyclo[1.1.1]pentan-1-yl}acetamide] | > 2000 nM
4 | O=C(COc1ccc(Cl)c(F)c1)NC12CC(NC(=O)Cc3ccccn3)(C1)C2 [Compound 448, 2-(4-chloro-3-fluorophenoxy)-N-{3-[2-(pyridin-2-yl)acetamido]bicyclo[1.1.1]pentan-1-yl}acetamide] | > 2000 nM
5 | CC(=O)O[C@@H]1CC2(NCCOc3ccc(Cl)c(F)c3)CCC1(NC(=O)COc1ccc(Cl)c(F)c1)CC2 [Compound 450, (2R)-1-[2-(4-chloro-3-fluorophenoxy)acetamido]-4-{[2-(4-chloro-3-fluorophenoxy)ethyl]amino}bicyclo[2.2.2]octan-2-yl acetate] | 10 to 50 nM
6 | O=C(COc1ccc(Cl)c(Cl)c1)NC12CC(NC(=O)NCc3cccc(F)c3)(C1)C2 [Compound 451, 2-(3,4-dichlorophenoxy)-N-[3-({[(3-fluorophenyl)methyl]carbamoyl}amino)bicyclo[1.1.1]pentan-1-yl]acetamide] | > 2000 nM
7 | O=C(COc1ccc(Cl)c(F)c1)NC12CCC(NC(=O)COc3ccc(Cl)c(Cl)c3)(CC1)[C@@H](O)C2 [Compound 452, 2-(4-chloro-3-fluorophenoxy)-N-{(3S)-4-[2-(3,4-dichlorophenoxy)acetamido]-3-hydroxybicyclo[2.2.2]octan-1-yl}acetamide] | < 10 nM
8 | CC(C)(Oc1ccc(Cl)cc1)C(=O)NC12CCC(NC(=O)COc3ccc(Cl)c(F)c3)(CC1)C[C@@H]2O [Compound 453, N-{(2S)-4-[2-(4-chloro-3-fluorophenoxy)acetamido]-2-hydroxybicyclo[2.2.2]octan-1-yl}-2-(4-chlorophenoxy)-2-methylpropanamide] | 10 to 50 nM
9 | O=C(COc1ccc(Cl)c(F)c1)NC12CCC(NC(=O)COc3ccc(Cl)cc3)(CC1)[C@@H](O)C2 [Compound 454, 2-(4-chloro-3-fluorophenoxy)-N-{(3S)-4-[2-(4-chlorophenoxy)acetamido]-3-hydroxybicyclo[2.2.2]octan-1-yl}acetamide] | < 10 nM
10 | COc1ccc(OC)c(CCC(=O)NC23CC(NC(=O)COc4ccc(Cl)c(F)c4)(C2)C3)c1 [Compound 455, N-{3-[2-(4-chloro-3-fluorophenoxy)acetamido]bicyclo[1.1.1]pentan-1-yl}-3-(2,5-dimethoxyphenyl)propanamide] | > 2000 nM
11 | Cc1ccc(OCC(=O)NC23CC(NC(=O)COc4ccc(Cl)c(F)c4)(C2)C3)cc1C [Compound 456, 2-(4-chloro-3-fluorophenoxy)-N-{3-[2-(3,4-dimethylphenoxy)acetamido]bicyclo[1.1.1]pentan-1-yl}acetamide] | < 10 nM
12 | O=C(COc1ccc(Cl)c(F)c1)NC12CC(NC(=O)Cc3cccc(C(F)(F)F)c3)(C1)C2 [Compound 457, 2-(4-chloro-3-fluorophenoxy)-N-(3-{2-[3-(trifluoromethyl)phenyl]acetamido}bicyclo[1.1.1]pentan-1-yl)acetamide] | > 2000 nM
13 | O=C(COc1ccc(Cl)c(F)c1)NC12CC(NC(=O)Cc3cccnc3)(C1)C2 [Compound 458, 2-(4-chloro-3-fluorophenoxy)-N-{3-[2-(pyridin-3-yl)acetamido]bicyclo[1.1.1]pentan-1-yl}acetamide] | > 2000 nM
14 | O=C(COc1ccc(Cl)c(F)c1)NC12CC(NC(=O)Cc3ccncc3)(C1)C2 [Compound 459, 2-(4-chloro-3-fluorophenoxy)-N-{3-[2-(pyridin-4-yl)acetamido]bicyclo[1.1.1]pentan-1-yl}acetamide] | > 2000 nM
15 | Cc1ccc(OCC(=O)NC23CC(NC(=O)COc4ccc(Cl)c(F)c4)(C2)C3)cc1 [Compound 460, 2-(4-chloro-3-fluorophenoxy)-N-{3-[2-(4-methylphenoxy)acetamido]bicyclo[1.1.1]pentan-1-yl}acetamide] | 10 to 50 nM
16 | COc1cccc(CCC(=O)NC23CC(NC(=O)COc4ccc(Cl)c(F)c4)(C2)C3)c1 [Compound 461, N-{3-[2-(4-chloro-3-fluorophenoxy)acetamido]bicyclo[1.1.1]pentan-1-yl}-3-(3-methoxyphenyl)propanamide] | > 2000 nM

Row | SMILES | EC50
17 | O=C(COc1ccc(Cl)c(F)c1)NC12CC(NC(=O)[C@H](O)CCc3ccccc3)(C1)C2 [Compound 462, (2R)-N-{3-[2-(4-chloro-3-fluorophenoxy)acetamido]bicyclo[1.1.1]pentan-1-yl}-2-hydroxy-4-phenylbutanamide] | > 2000 nM
18 | CCc1cc(C)cc(OCC(=O)NC23CCC(NC(=O)COc4ccc(Cl)c(F)c4)(CC2)[C@@H](O)C3)c1 [Compound 463, 2-(4-chloro-3-fluorophenoxy)-N-{(2S)-4-[2-(3-ethyl-5-methylphenoxy)acetamido]-2-hydroxybicyclo[2.2.2]octan-1-yl}acetamide] | > 2000 nM
19 | CCOc1ccc(OCC(=O)NC23CCC(NC(=O)COc4ccc(Cl)c(F)c4)(CC2)[C@@H](O)C3)cc1 [Compound 464, 2-(4-chloro-3-fluorophenoxy)-N-{(2S)-4-[2-(4-ethoxyphenoxy)acetamido]-2-hydroxybicyclo[2.2.2]octan-1-yl}acetamide] | 10 to 50 nM
20 | COc1cc(OCC(=O)NC23CCC(NC(=O)COc4ccc(Cl)c(F)c4)(CC2)[C@@H](O)C3)ccc1Cl [Compound 465, 2-(4-chloro-3-fluorophenoxy)-N-{(2S)-4-[2-(4-chloro-3-methoxyphenoxy)acetamido]-2-hydroxybicyclo[2.2.2]octan-1-yl}acetamide] | < 10 nM
21 | O=C(COc1cccc(C(F)(F)F)c1)NC12CCC(NC(=O)COc3ccc(Cl)c(F)c3)(CC1)[C@@H](O)C2 [Compound 466, 2-(4-chloro-3-fluorophenoxy)-N-[(2S)-2-hydroxy-4-{2-[3-(trifluoromethyl)phenoxy]acetamido}bicyclo[2.2.2]octan-1-yl]acetamide] | < 10 nM
22 | Cc1cccc(OCC(=O)NC23CCC(NC(=O)COc4ccc(Cl)c(F)c4)(CC2)[C@@H](O)C3)c1 [Compound 467, 2-(4-chloro-3-fluorophenoxy)-N-{(2S)-2-hydroxy-4-[2-(3-methylphenoxy)acetamido]bicyclo[2.2.2]octan-1-yl}acetamide] | < 10 nM
23 | O=C(COc1ccc(C(F)(F)F)cc1)NC12CCC(NC(=O)COc3ccc(Cl)c(F)c3)(CC1)[C@@H](O)C2 [Compound 468, 2-(4-chloro-3-fluorophenoxy)-N-[(2S)-2-hydroxy-4-{2-[4-(trifluoromethyl)phenoxy]acetamido}bicyclo[2.2.2]octan-1-yl]acetamide] | < 10 nM
24 | Cc1cc(OCC(=O)NC23CCC(NC(=O)COc4ccc(Cl)c(F)c4)(CC2)[C@@H](O)C3)cc(C)c1C [Compound 469, 2-(4-chloro-3-fluorophenoxy)-N-{(2S)-2-hydroxy-4-[2-(3,4,5-trimethylphenoxy)acetamido]bicyclo[2.2.2]octan-1-yl}acetamide] | > 2000 nM
25 | Cc1cc(C)cc(OCC(=O)NC23CCC(NC(=O)COc4ccc(Cl)c(F)c4)(CC2)[C@@H](O)C3)c1 [Compound 470, 2-(4-chloro-3-fluorophenoxy)-N-{(2S)-4-[2-(3,5-dimethylphenoxy)acetamido]-2-hydroxybicyclo[2.2.2]octan-1-yl}acetamide] | 10 to 50 nM
26 | Cc1ccc(OCC(=O)NC23CCC(NC(=O)COc4ccc(Cl)c(F)c4)(CC2)[C@@H](O)C3)cc1C [Compound 471, 2-(4-chloro-3-fluorophenoxy)-N-{(2S)-4-[2-(3,4-dimethylphenoxy)acetamido]-2-hydroxybicyclo[2.2.2]octan-1-yl}acetamide] | < 10 nM
27 | O=C(COc1ccc2ccccc2c1)NC12CCC(NC(=O)COc3ccc(Cl)c(F)c3)(CC1)[C@@H](O)C2 [Compound 472, 2-(4-chloro-3-fluorophenoxy)-N-[(2S)-2-hydroxy-4-{2-[(naphthalen-2-yl)oxy]acetamido}bicyclo[2.2.2]octan-1-yl]acetamide] | < 10 nM
28 | O=C(COc1ccc(OC(F)(F)F)cc1)NC12CCC(NC(=O)COc3ccc(Cl)c(F)c3)(CC1)[C@@H](O)C2 [Compound 473, 2-(4-chloro-3-fluorophenoxy)-N-[(2S)-2-hydroxy-4-{2-[4-(trifluoromethoxy)phenoxy]acetamido}bicyclo[2.2.2]octan-1-yl]acetamide] | < 10 nM
29 | CCCS(=O)(=O)c1ccc(OCC(=O)NC23CCC(NC(=O)COc4ccc(Cl)c(F)c4)(CC2)[C@@H](O)C3)cc1 [Compound 474, 2-(4-chloro-3-fluorophenoxy)-N-[(2S)-2-hydroxy-4-{2-[4-(propane-1-sulfonyl)phenoxy]acetamido}bicyclo[2.2.2]octan-1-yl]acetamide] | > 2000 nM
30 | Cc1ccc(OCC(=O)NC23CCC(NC(=O)COc4ccc(Cl)c(F)c4)(CC2)[C@@H](O)C3)cc1 [Compound 475, 2-(4-chloro-3-fluorophenoxy)-N-{(2S)-2-hydroxy-4-[2-(4-methylphenoxy)acetamido]bicyclo[2.2.2]octan-1-yl}acetamide] | < 10 nM
31 | CS(=O)(=O)c1ccc(OCC(=O)NC23CCC(NC(=O)COc4ccc(Cl)c(F)c4)(CC2)[C@@H](O)C3)cc1 [Compound 476, 2-(4-chloro-3-fluorophenoxy)-N-[(2S)-2-hydroxy-4-{2-[4-(methanesulfonyl)phenoxy]acetamido}bicyclo[2.2.2]octan-1-yl] acetamide] | 50 to 250 nM
32 | CC(C)(C)c1ccc(OCC(=O)NC23CCC(NC(=O)COc4ccc(Cl)c(F)c4)(CC2)[C@@H](O)C3)cc1 [Compound 477, 2-(4-tert-butylphenoxy)-N-{(3S)-4-[2-(4-chloro-3-fluorophenoxy)acetamido]-3-hydroxybicyclo[2.2.2]octan-1-yl}acetamide] | > 2000 nM
